Data on ten compounds can be found in patent publication US20250134890A1, “ANTIMALARIAL HEXAHYDROPYRIMIDINE ANALOGUES” (UCB BIOPHARMA SRL, priority 2022, published 2025).

Where a name gives a salt, the structure may show the parent alone.

This assay concerns Plasmodium falciparum: 3D7 strain. Put plainly: P. falciparum 3D7 asexual blood stage assay (SYBR green readout). In kind it is cell-based. The following applies: Plasmodium falciparum, 3D7, Erythrocyte, 72 h, P. falciparum 3D7 in human erythrocytes, 72 h incubation, SYBR green fluorescence. The method, boiled down: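 3D7-infected erythrocytes (5% haematocrit, 0.5% parasitaemia) were exposed 72 h at 37 °C under 1% O2/3% CO2 to a 20-point titration (50,000-15 nM final, 0.5% DMSO). Parasite DNA was read by SYBR green fluorescence after overnight lysis. Percent inhibition was set against mefloquine and DMSO, and EC50 came from a biphasic two-site fit.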
What is called IC50 is the concentration that inhibits the measured activity by half. Read a low IC50 as inhibition by little substance. As to `C[C@H]1C[C@@H](N2C(=N)N[C@](C)(c3cccc(-c4cccc5ccccc45)c3Cl)CC2=O)CCO1` [Example 35, (6S)-6-[2-Chloro-3-(naphth-1-yl)-phenyl]-2-imino-6-methyl-3-[(2S,4S)-2-methyltetrahydropyran-4-yl]hexahydropyrimidin-4-one trifluoroacetic acid salt], 355 nM corresponded to half-maximal inhibition (IC50). With `CC(C)c1ccccc1-c1cccc([C@]2(C)CC(=O)N([C@H]3CCO[C@@H](C)C3)C(=N)N2)c1Cl` [Example 36, (6S)-6-[2-Chloro-3-(2-isopropyl-phenyl)phenyl]-2-imino-6-methyl-3-[(2S,4S)-2-methyltetrahydro-pyran-4-yl]hexahydropyrimidin-4-one trifluoroacetic acid salt] the figure was 95 nM; with `C[C@H]1C[C@@H](N2C(=N)N[C@](C)(c3cccc(-c4ccccc4C(F)(F)F)c3Cl)CC2=O)CCO1` [Example 37, (6S)-6-{2-Chloro-3-[2-(trifluoro-methyl)phenyl]phenyl}-2-imino-6-methyl-3-[(2S,4S)-2-methyl-tetrahydropyran-4-yl]hexahydro-pyrimidin-4-one trifluoroacetic acid salt], 67 nM; with `C[C@H]1C[C@@H](N2C(=N)N[C@](C)(c3cccc(-c4ccc(F)c(F)c4)c3Cl)CC2=O)CCO1` [Example 38, (6S)-6-[2-Chloro-3-(3,4-difluoro-phenyl)phenyl]-2-imino-6-methyl-3-[(2S,4S)-2-methyltetrahydro-pyran-4-yl]hexahydropyrimidin-4-one trifluoroacetic acid salt], 135 nM.

`C[C@H]1C[C@@H](N2C(=N)N[C@](C)(c3cccc(-c4ccncc4)c3Cl)CC2=O)CCO1` [Example 39, (6S)-6-[2-Chloro-3-(pyridin-4-yl)-phenyl]-2-imino-6-methyl-3-[(2S,4S)-2-methyltetrahydropyran-4-yl]hexahydropyrimidin-4-one trifluoroacetic acid salt] came in with an IC50 of 269 nM.

`C[C@H]1C[C@@H](N2C(=N)N[C@](C)(c3cccc(-c4cccc(C#N)c4)c3Cl)CC2=O)CCO1` [Example 40, 3-(2-Chloro-3-{(4S)-2-imino-4-methyl-1-[(2S,4S)-2-methyl-tetrahydropyran-4-yl]-6-oxo-hexahydropyrimidin-4-yl}phenyl)-benzonitrile trifluoroacetic acid salt] yielded a half-maximal inhibitory concentration (IC50) of 50 nM.

In turn, `C[C@H]1C[C@@H](N2C(=N)N[C@](C)(c3cccc(-c4cncnc4)c3Cl)CC2=O)CCO1` [Example 41, (6S)-6-[2-Chloro-3-(pyrimidin-5-yl)phenyl]-2-imino-6-methyl-3-[(2S,4S)-2-methyltetrahydropyran-4-yl]hexahydropyrimidin-4-one trifluoroacetic acid salt] had an IC50 of 145 nM. With `C[C@H]1C[C@@H](N2C(=N)N[C@](C)(c3cccc(-c4cc(F)ccc4F)c3Cl)CC2=O)CCO1` [Example 42, (6S)-6-[2-Chloro-3-(2,5-difluoro-phenyl)phenyl]-2-imino-6-methyl-3-[(2S,4S)-2-methyltetrahydro-pyran-4-yl]hexahydropyrimidin-4-one trifluoroacetic acid salt] the figure was 88 nM. The figure for `COc1ccc(-c2cccc([C@]3(C)CC(=O)N([C@H]4CCO[C@@H](C)C4)C(=N)N3)c2Cl)cn1` [Example 43, (6S)-6-[2-Chloro-3-(6-methoxy-pyridin-3-yl)phenyl]-2-imino-6-methyl-3-[(2S,4S)-2-methyl-tetrahydropyran-4-yl]hexahydro-pyrimidin-4-one trifluoroacetic acid salt] is 94 nM. With `C[C@H]1C[C@@H](N2C(=N)N[C@](C)(c3cccc(-c4cc(F)cc(F)c4)c3Cl)CC2=O)CCO1` [Example 44, (6S)-6-[2-Chloro-3-(3,5-difluoro-phenyl)phenyl]-2-imino-6-methyl-3-[(2S,4S)-2-methyltetrahydro-pyran-4-yl]hexahydropyrimidin-4-one trifluoroacetic acid salt] the figure was 103 nM.
